# Assay results as given in patent publication US20240246941A1, “SUBSTITUTED 4-(3-AMINOPROP-1-YL)AMINOQUINOLINE ANALOGS AS MODULATORS OF MELANOMA-ASSOCIATED ANTIGEN 11 UBIQUITIN LIGASE” (ST. JUDE CHILDREN'S RESEARCH HOSPITAL, INC., priority 2020, published 2024).
# Biological target: MAGE-A11:PCF11 (Homo sapiens (Human), UniProt P43364)
# Test: TR-FRET single point screening at 15 μM
# Type: binding
# Set-up: unit not given here
# Details: single point TR-FRET screening at 15 μM against MAGE-A11:PCF11
# How it was run: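 Single-point screen at 15 μM (0.25% DMSO) measuring disruption of GST-MAGEA11 (5 nM) binding to FAM-PCF11_4 peptide (200 nM) detected by Tb-anti-GST (5 nM). Buffer 50 mM Tris pH 7.5, 20 mM MgCl2, 0.1 mg/ml BSA, 1 mM DTT; 90 min at ~25 °C; 520/490 nm ratio converted to % inhibition versus controls.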
# Chain of MAGE-A11:PCF11 (P43364 218-429): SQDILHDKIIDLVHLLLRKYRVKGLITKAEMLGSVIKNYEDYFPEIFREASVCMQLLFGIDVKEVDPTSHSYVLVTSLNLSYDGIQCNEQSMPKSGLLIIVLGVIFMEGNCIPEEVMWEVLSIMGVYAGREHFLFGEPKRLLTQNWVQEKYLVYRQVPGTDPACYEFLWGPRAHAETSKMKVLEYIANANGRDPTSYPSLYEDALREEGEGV
row,Structure (SMILES),TR-FRET signal
1,CCOC(=O)c1cnc2c(C(F)(F)F)cccc2c1NCCN1CCOCC1 [SJ000281260],0.8341
2,Clc1ccc2c(NCCCCN(Cc3ccccc3)Cc3ccsc3)ccnc2c1 [SJ000312689],16.3
3,COc1cccc(F)c1CN1CCC(Nc2ccnc3cc(Cl)ccc23)CC1 [SJ000357498],10.5
4,CCN(CC)CC(=O)Nc1c2c(nc3ccccc13)CCCC2 [SJ000019523],2.741
5,CCCN(CCCNc1c2ccc(Cl)cc2nc2ccc(OC)cc12)CCc1ccccc1 [SJ000520962],−591.7
6,CCN1CCN(c2c(S(=O)(=O)c3ccc(OC)cc3)cnc3cc(OC)c(OC)cc23)CC1 [SJ000083972],7.411
7,O=S(=O)(c1ccc(Cl)cc1)c1cnc2ccc(F)cc2c1N1CCN(c2ccccc2)CC1 [SJ000117055],2.112
8,COc1ccc2nc3cc(Cl)ccc3c(NCCCNCc3ccsc3)c2c1 [SJ000523026],−353.8
9,Clc1ccc2c(NCCCCN(CCCc3ccccc3)Cc3ccccc3)ccnc2c1 [SJ000522729],27.82
10,Cc1cc(C)c(CN2CCC(Nc3ccnc4cc(Cl)ccc34)CC2)c(C)c1 [SJ000523084],11.75
11,COc1ccccc1N1CCN(c2c(S(=O)(=O)c3ccc(Cl)cc3)cnc3ccc(C)cc23)CC1 [SJ000117070],−15.37
12,O=S(=O)(c1ccccc1)c1cnc2ccc(Cl)cc2c1N1CCN(c2ccccc2F)CC1 [SJ000315176],−5.441
13,COc1ccc2nc3cc(Cl)ccc3c(NCCCNCc3ccc4c(c3)OCO4)c2c1 [SJ000361085],−363.3
14,COc1ccc(O)c(CN(CCCCNc2ccnc3cc(Cl)ccc23)Cc2ccccc2)c1 [SJ000312696],6.634
15,COc1ccc(CNCCCNc2c3ccc(Cl)cc3nc3ccc(OC)cc23)cc1 [SJ000523033],−338.9
16,FC(F)(F)Oc1ccccc1CN(CCCCNc1ccnc2cc(Cl)ccc12)Cc1ccccc1 [SJ000520459],30.86
17,CCOC(=O)c1cnc2ccc(Br)cc2c1NCCN1CCOCC1 [SJ000031339],−47.24
18,CCc1ccc2ncc(S(=O)(=O)c3ccc(C)c(C)c3)c(N3CCN(C)CC3)c2c1 [SJ000247332],2.973
19,Clc1ccc2c(NC3CCN(CCCc4ccccc4)CC3)ccnc2c1 [SJ000523104],20.65
20,CCCN(CCCCNc1ccnc2cc(Cl)ccc12)Cc1ccccc1 [SJ000311205],7.684
21,CCCN(CCCCNc1ccnc2cc(Cl)ccc12)Cc1cc(F)ccc1OC [SJ000311202],5.396

row,Structure (SMILES),TR-FRET signal
1,CCc1nc2ccccc2c(NC(=O)CNC(C)(C)CC(C)(C)C)c1C [SJ000049110],−0.6045
2,CCOC(=O)c1cnc2c(Cl)c(Cl)ccc2c1NCCN(C)C [SJ000027266],2.575
3,CCCN(CCCNc1c2ccc(Cl)cc2nc2ccc(OC)cc12)Cc1ccccc1OC [SJ000520950],−271.1
4,O=C(O)c1ccccc1CN(CCCCNc1ccnc2cc(Cl)ccc12)Cc1ccccc1 [SJ000361203],4.099
5,CCCN(CCCCNc1ccnc2cc(Cl)ccc12)CCCSC [SJ000311197],3.903
6,Cc1ccc(S(=O)(=O)c2cnc3ccccc3c2N2CCN(c3ccc(F)cc3)CC2)cc1 [SJ000117057],−20.61
7,COC(=O)CN1CCN(c2cc(C)nc3ccccc23)C(C)C1=O (stereo not shown) [SJ000516812],3.503
8,Oc1c(F)cc(F)cc1CN(CCCCNc1ccnc2cc(Cl)ccc12)Cc1ccccc1 [SJ000357506],30.65
9,Clc1ccc2c(NC3CCN(Cc4ccc5c(c4)OCO5)CC3)ccnc2c1 [SJ000523087],7.643
10,Clc1ccc2c(NCCCCN(Cc3ccccc3)Cc3ccc(Br)s3)ccnc2c1 [SJ000312688],22.04
11,Cc1csc(CN(CCCCNc2ccnc3cc(Cl)ccc23)Cc2ccccc2)n1 [SJ000520456],−12.86
12,COc1ccc(CN(CCCCNc2ccnc3cc(Cl)ccc23)Cc2ccccc2)cc1F [SJ000520438],13.15
13,CCN1CCN(c2c(S(=O)(=O)c3ccc(C)c(C)c3)cnc3ccc(F)cc23)CC1 [SJ000247345],1.118
14,Clc1ccc2c(NCCCCN(Cc3ccccc3)Cc3cccc4ccccc34)ccnc2c1 [SJ000361204],26.49
15,FC(F)(F)Oc1ccc(CN(CCCCNc2ccnc3cc(Cl)ccc23)Cc2ccccc2)cc1 [SJ000520451],39.87
16,CCOc1ccc2ncc(S(=O)(=O)c3ccccc3)c(N3CCN(Cc4ccccc4)CC3)c2c1 [SJ000247249],−15.91
17,COc1ccccc1N1CCN(c2c(S(=O)(=O)c3ccc(C)cc3)cnc3ccccc23)CC1 [SJ000117065],−8.687
18,CCCN(CCCNc1c2ccc(Cl)cc2nc2ccc(OC)cc12)Cc1ccc(OC)cc1 [SJ000520943],−241.4
19,CCOc1ccc(C(=O)c2cnc3ccc(C)cc3c2N2CCN(CC)CC2)cc1 [SJ000247339],−10.81
20,COc1ccc(CN2CCC(Nc3ccnc4cc(Cl)ccc34)CC2)cc1OC [SJ000523103],11.75
21,Clc1ccc2c(NC3CCN(CC4CCCCC4)CC3)ccnc2c1 [SJ000523085],15.43

# Same assay, conditions: single point TR-FRET screening of quinoline compounds against MAGE-A11:PCF11; 15 μM
row,Structure (SMILES),TR-FRET signal
1,O=[N+]([O-])c1ccc(CNCCCNc2ccnc3cc(Cl)ccc23)s1 [SJ000520912],6.284
2,Cc1ccc(CN(CCCNc2ccnc3cc(Cl)ccc23)Cc2ccccc2)s1 [SJ000312673],4.629
3,CCCN(CCCNc1c2ccc(Cl)cc2nc2ccc(OC)cc12)Cc1cc(F)cc(F)c1O [SJ000522982],2.045
4,CN(C)CCCNc1c2c(nc3ccccc13)CCC2 [SJ000029259],24.05
5,Clc1ccc2c(NCCCN(Cc3ccccc3)CC3CC3)ccnc2c1 [SJ000357483],21.06
6,CCCN(CCCNc1ccnc2cc(Cl)ccc12)CC(CC)CC [SJ000522752],14.17
7,CCCN(CCCNc1ccnc2cc(C(F)(F)F)ccc12)Cc1c(F)cccc1OC [SJ000361262],29.23
8,Clc1ccc2c(NCCCNCc3ccncc3)ccnc2c1 [SJ000523049],6.077
9,CCCN(CCCNc1ccnc2cc(Cl)ccc12)Cc1ccc(OC(F)(F)F)cc1 [SJ000522999],22.74
10,CCCN(CCCNc1ccnc2cc(Cl)ccc12)Cc1cc2ccccc2nc1Cl [SJ000522760],12.8
11,CCCCCCN(CCC)CCCNc1ccnc2cc(C(F)(F)F)ccc12 [SJ000523083],34.95
12,CC(C)CN(CCCNc1ccnc2cc(Cl)ccc12)Cc1ccccc1 [SJ000357468],18.75
13,FC(F)(F)c1ccc2c(NCCCNCC3CCCCC3)ccnc2c1 [SJ000361110],27.12
14,CC(C)(C)c1ccc(-c2ccc3c(NCCCNCc4ccco4)ccnc3c2)cc1 [SJ000311286],73.5
15,CCCN(CCCNc1ccnc2cc(C(F)(F)F)ccc12)Cc1ccccc1C(F)(F)F [SJ000361259],4.988
16,CCCN(CCCNc1c2ccc(Cl)cc2nc2ccc(OC)cc12)Cc1c(Cl)ccc(Cl)c1Cl [SJ000523021],40
17,COc1cc(Cc2ccc3c(NCCCNCc4ccco4)ccnc3c2)cc(OC)c1 [SJ000311310],23.79
18,Cc1ccc(CNCCCNc2ccnc3cc(Cl)ccc23)o1 [SJ000311326],10.2
19,FC(F)(F)c1ccc2c(NCCCNCc3cc4ccccc4o3)ccnc2c1 [SJ000521057],27.48

row,Structure (SMILES),TR-FRET signal
1,CCCN(CCCNc1ccnc2cc(Cl)ccc12)Cc1cc2ccccc2o1 [SJ000522991],9.295
2,CCCN(CCCNc1ccnc2cc(Cl)ccc12)Cc1ccc([N+](=O)[O-])s1 [SJ000522750],9.134
3,CC(C)(C)CCN(CCCNc1ccnc2cc(Cl)ccc12)Cc1ccccc1 [SJ000357578],25.69
4,CCCN(CCCNc1ccnc2cc(C(F)(F)F)ccc12)Cc1ccc(OC(F)(F)F)cc1 [SJ000520474],17.38
5,CCCN(CCCNc1ccnc2cc(Cl)ccc12)Cc1c(C)cc(C)cc1C [SJ000522749],35.43
6,CCCCCN(CCC)CCCNc1ccnc2cc(C(F)(F)F)ccc12 [SJ000361271],30.93
7,CCCN(CCCNc1ccnc2cc(Cl)ccc12)Cc1nc(C)cs1 [SJ000522997],3.413
8,CCCN(CCCNc1c2ccc(Cl)cc2nc2ccc(OC)cc12)Cc1ccccc1OC(F)(F)F [SJ000522961],22.69
9,CCCN(CCCNc1ccnc2cc(Cl)ccc12)Cc1cc2ccccc2s1 [SJ000522993],5.864
10,Fc1cccc(C(F)(F)F)c1CN(CCCNc1ccnc2cc(Cl)ccc12)Cc1ccccc1 [SJ000520467],22.01
11,CCCNCCCNc1ccnc2cc(C(F)(F)F)ccc12 [SJ000361123],12.82
12,CCCN(CCCNc1c2ccc(Cl)cc2nc2ccc(OC)cc12)Cc1ccc(Cl)c([N+](=O)[O-])c1 [SJ000522738],−71.03
13,Clc1cccc(Cl)c1Cc1ccc2c(NCCCNCc3ccco3)ccnc2c1 [SJ000311314],32.4
14,CCCN(CCCNc1ccnc2cc(C(F)(F)F)ccc12)Cc1ccsc1 [SJ000361254],28.88
15,CCCCCCNCCCNc1ccnc2cc(Cl)ccc12 [SJ000361120],22.25
16,Clc1cccc(-c2ccc(CNCCCNc3ccnc4cc(Cl)ccc34)o2)c1 [SJ000523069],33.51
17,CCCN(CCCNc1c2ccc(Cl)cc2nc2ccc(OC)cc12)Cc1cc(OC(F)(F)F)ccc1OC [SJ000522984],−36.71
18,CCCN(CCCNc1c2ccc(Cl)cc2nc2ccc(OC)cc12)Cc1ccc(-c2ccccc2)cc1 [SJ000522740],−74.01
